According to patent US7300946B2, “N-(substituted arylmethyl)-4-(disubstituted methyl) piperidines and pyridines” (Bayer CropScience AG, priority 2002, dated 2007):

Test system: tobacco budworm (Heliothis virescens [Fabricius])
Experiment: surface-treated diet test against the tobacco budworm
Assay type: in vivo
Conditions: tobacco budworm second instar larvae, 0.25 millimoles of candidate insecticide on the surface of the diet, five-day exposure; for Percent Mortality: compared to total number of insects infested; for Percent Growth Inhibition: inhibition of insect weight relative to untreated controls
Outline: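 Wheat germ artificial diet surface-treated with 40 µL of 50 mM DMSO stock diluted 1:7 in 1:1 water/acetone (0.25 millimolar on diet), or sub-multiples for rate tests. One second-instar larva per well, 25° C, 60% RH, 5 days; percent weight inhibition vs DMSO controls and percent mortality.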

COc1ccc(C(=C2CC[N+]([O-])(Cc3ccc(NC(=O)OC(C)C)cc3)CC2)c2ccc(OC)cc2)cc1 (stereo not shown) [Compound 835]
Percent Mortality: 0%
Percent Growth Inhibition: 80%

C=CCOC(=O)Nc1ccc(C[N+]2([O-])CCC(=C(c3ccc(C(F)(F)F)cc3)c3ccc(C(F)(F)F)cc3)CC2)cc1 (stereo not shown) [Compound 836]
Percent Mortality: 100%
Percent Growth Inhibition: 100%

CC=CCOC(=O)Nc1ccc(C[N+]2([O-])CCC(=C(c3ccc(C(F)(F)F)cc3)c3ccc(C(F)(F)F)cc3)CC2)cc1 (stereo not shown) [Compound 837]
Percent Mortality: 100%
Percent Growth Inhibition: 100%

C#CCOC(=O)Nc1ccc(C[N+]2([O-])CCC(=C(c3ccc(C(F)(F)F)cc3)c3ccc(C(F)(F)F)cc3)CC2)cc1 (stereo not shown) [Compound 838]
Percent Mortality: 100%
Percent Growth Inhibition: 100%

[O-][N+]1(Cc2ccc(Oc3ccccc3F)cc2)CCC(=C(c2ccc(C(F)(F)F)cc2)c2ccc(C(F)(F)F)cc2)CC1 (stereo not shown) [Compound 839]
Percent Mortality: 100%
Percent Growth Inhibition: 100%

[O-][N+]1(Cc2ccc(-c3ccccn3)cc2)CCC(=C(c2ccc(C(F)(F)F)cc2)c2ccc(C(F)(F)F)cc2)CC1 (stereo not shown) [Compound 840]
Percent Mortality: 100%
Percent Growth Inhibition: 100%

[O-][N+]1(Cc2ccc(Oc3ccccn3)cc2)CCC(=C(c2ccc(Cl)cc2)c2ccc(Cl)cc2)CC1 (stereo not shown) [Compound 841]
Percent Mortality: 100%
Percent Growth Inhibition: 100%

[O-][N+]1(Cc2ccc(Oc3ccccn3)cc2)CCC(=C(c2ccc(F)cc2)c2ccc(F)cc2)CC1 (stereo not shown) [Compound 842]
Percent Mortality: 100%
Percent Growth Inhibition: 100%

[O-][N+]1(Cc2ccc(Nc3ccccn3)cc2)CCC(=C(c2ccc(C(F)(F)F)cc2)c2ccc(C(F)(F)F)cc2)CC1 (stereo not shown) [Compound 843]
Percent Mortality: 100%
Percent Growth Inhibition: 100%

[O-][N+]1(Cc2ccc(Oc3ncccn3)cc2)CCC(=C(c2ccc(Cl)cc2)c2ccc(Cl)cc2)CC1 (stereo not shown) [Compound 844]
Percent Mortality: 100%
Percent Growth Inhibition: 100%

[O-][N+]1(Cc2ccc(Oc3ncccn3)cc2)CCC(=C(c2ccc(C(F)(F)F)cc2)c2ccccc2Cl)CC1 (stereo not shown) [Compound 845]
Percent Mortality: 83%
Percent Growth Inhibition: 100%

[O-][N+]1(Cc2ccc(Oc3ncccn3)cc2)CCC(=C(c2ccc(C(F)(F)F)cc2)c2cccc(Cl)c2)CC1 (stereo not shown) [Compound 846]
Percent Mortality: 100%
Percent Growth Inhibition: 100%

[O-][N+]1(Cc2ccc(Oc3ncccn3)cc2)CCC(=C(c2ccc(Cl)cc2)c2ccc(C(F)(F)F)cc2)CC1 (stereo not shown) [Compound 847]
Percent Mortality: 100%
Percent Growth Inhibition: 100%

[O-][N+]1(Cc2ccc(Oc3ncccn3)cc2)CCC(=C(c2ccc(C(F)(F)F)cc2)c2cccc(F)c2)CC1 (stereo not shown) [Compound 848]
Percent Mortality: 83%
Percent Growth Inhibition: 100%

[O-][N+]1(Cc2ccc(Oc3ncccn3)cc2)CCC(=C(c2ccc(Cl)c(Cl)c2)c2ccc(Cl)c(Cl)c2)CC1 (stereo not shown) [Compound 849]
Percent Mortality: 100%
Percent Growth Inhibition: 100%

[O-][N+]1(Cc2ccc(Oc3ncccn3)cc2)CCC(=C(c2ccc(C(F)(F)F)cc2)c2ccc(Cl)c(Cl)c2)CC1 (stereo not shown) [Compound 850]
Percent Mortality: 100%
Percent Growth Inhibition: 100%

[O-][N+]1(Cc2ccc(Oc3ncccn3)cc2)CCC(=C(c2ccc(C(F)(F)F)cc2)c2cc(Cl)cc(Cl)c2)CC1 (stereo not shown) [Compound 851]
Percent Mortality: 50%
Percent Growth Inhibition: 100%

[O-][N+]1(Cc2ccc(Oc3ncccn3)cc2)CCC(=C(c2ccc(C(F)(F)F)cc2)c2ccc(Cl)c(F)c2)CC1 (stereo not shown) [Compound 852]
Percent Mortality: 100%
Percent Growth Inhibition: 100%

[O-][N+]1(Cc2ccc(Oc3ncccn3)cc2)CCC(=C(c2ccc(C(F)(F)F)cc2)c2cccc(C(F)(F)F)c2)CC1 (stereo not shown) [Compound 853]
Percent Mortality: 100%
Percent Growth Inhibition: 100%

[O-][N+]1(Cc2ccc(Oc3ncccn3)cc2)CCC(=C(c2ccc(C(F)(F)F)cc2)c2ccc(C(F)(F)F)cc2)CC1 (stereo not shown) [Compound 854]
Percent Mortality: 100%
Percent Growth Inhibition: 100%

[O-][N+]1(Cc2ccc(Oc3ccc(Cl)nn3)cc2)CCC(=C(c2ccc(C(F)(F)F)cc2)c2ccc(C(F)(F)F)cc2)CC1 (stereo not shown) [Compound 855]
Percent Mortality: 100%
Percent Growth Inhibition: 100%

[O-][N+]1(Cc2ccc(Oc3ncccn3)cc2)CCC(=C(c2ccc(C(F)(F)F)cc2)c2cc(Cl)cc(Cl)c2)CC1 (stereo not shown) [Compound 856]
Percent Mortality: 50%
Percent Growth Inhibition: 100%

[O-][N+]1(Cc2ccc(Oc3ncccn3)cc2)CCC(=C(c2ccc(C(F)(F)F)cc2)c2ccccc2Cl)CC1 (stereo not shown) [Compound 857]
Percent Mortality: 83%
Percent Growth Inhibition: 100%

FC(F)(F)c1ccc(C(=C2CCN(Cc3ccc(Oc4ccccc4)nc3)CC2)c2ccc(C(F)(F)F)cc2)cc1 [Compound 858]
Percent Mortality: 17%
Percent Growth Inhibition: 99%

FC(F)(F)c1ccc(C(=C2CCN(Cc3ccc(Nc4ncccn4)nc3)CC2)c2ccc(C(F)(F)F)cc2)cc1 [Compound 859]
Percent Mortality: 0%
Percent Growth Inhibition: 46%

CCOS(=O)(=O)[O-].CCO[N+]1(Cc2ccc(Oc3ccccn3)cc2)CCC(C(OC(=O)Nc2ccc(Cl)cc2)c2ccc(C(F)(F)F)cc2)CC1 (stereo not shown) [Compound 860, N-(4-chlorophenyl)({1-ethoxy-1-[(4-(2-pyridyloxy)phenyl)methyl](4-piperidyl)}[4-(trifluoromethyl)phenyl]methoxy)carboxamide, ethyl sulfate salt]
Percent Mortality: 100%
Percent Growth Inhibition: 100%
